Data as given in ChEMBL document CHEMBL1201862, “PubChem BioAssay data set” (2004).
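Interpolation was linear, between the two tested concentrations surrounding the appropriate level; five concentrations were tested over 48 hours in 96-well plates. GI50 = concentration required for 50% inhibition of growth.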 Activity calls are given as the source filed them. No stated cut-off is given here; in the data, active = GI50 up to about 1.1 µM and inactive = higher.

How the values were obtained:
Experiment in all cases: NCI tumour cell line growth inhibition, 48 h
786-0 = system: 786-0
A498 = system: A498
A549 = system: A549
ACHN = system: ACHN
CAKI-1 = system: CAKI-1
CCRF-CEM = system: CCRF-CEM
COLO 205 = system: COLO 205
DLD-1 = system: DLD-1
DMS-114 = system: DMS-114
DMS-273 = system: DMS-273
EKVX = system: EKVX
HL-60 = system: HL-60
HOP-62 = system: HOP-62
HOP-92 = system: HOP-92
HT-29 = system: HT-29
K562 = system: K562
KM-20L2 = system: KM-20L2
KM12 = system: KM12
LOX IMVI = system: LOX IMVI
LXFL 529 = system: LXFL 529
M19-MEL = system: M19-MEL
MOLT-4 = system: MOLT-4
Malme-3M = system: Malme-3M
NCI-H226 = system: NCI-H226
NCI-H23 = system: NCI-H23
NCI-H460 = system: NCI-H460
NCI-H522 = system: NCI-H522
OVCAR-4 = system: OVCAR-4
OVCAR-5 = system: OVCAR-5
OVCAR-8 = system: OVCAR-8
RXF 393 = system: RXF 393
SF-268 = system: SF-268
SF-295 = system: SF-295
SF-539 = system: SF-539
SK-MEL-28 = system: SK-MEL-28
SK-MEL-2 = system: SK-MEL-2
SK-MEL-5 = system: SK-MEL-5
SK-OV-3 = system: SK-OV-3
SN12C = system: SN12C
SNB-19 = system: SNB-19
SNB-78 = system: SNB-78
SR = system: SR
SW-620 = system: SW-620
TK-10 = system: TK-10
U-251 = system: U-251
UACC-257 = system: UACC-257
UACC-62 = system: UACC-62
UO-31 = system: UO-31
XF498 = system: XF498

Measured: GI50

CCOC(=O)CP(=S)(S)c1ccccc1 (centres undefined)
inactive: 786-0 > 100 µM | A498 > 100 µM | A549 > 100 µM | ACHN > 100 µM | CAKI-1 > 100 µM | CCRF-CEM > 100 µM | COLO 205 > 100 µM | DLD-1 > 100 µM | DMS-114 > 100 µM | DMS-273 > 100 µM | EKVX > 100 µM | HL-60 > 100 µM | HOP-62 > 100 µM | HOP-92 > 100 µM | HT-29 > 100 µM | K562 > 100 µM | KM-20L2 > 100 µM | KM12 > 100 µM | LOX IMVI > 100 µM | LXFL 529 > 100 µM | M19-MEL > 100 µM | MOLT-4 > 100 µM | Malme-3M > 100 µM | NCI-H226 > 100 µM | NCI-H23 > 100 µM | NCI-H460 > 100 µM | NCI-H522 > 100 µM | OVCAR-4 > 100 µM | OVCAR-5 > 100 µM | OVCAR-8 > 100 µM | RXF 393 > 100 µM | SF-268 > 100 µM | SF-295 > 10 µM | SF-539 > 100 µM | SK-MEL-28 > 100 µM | SK-MEL-2 > 100 µM | SK-MEL-5 > 100 µM | SK-OV-3 > 100 µM | SN12C > 100 µM | SNB-19 > 100 µM | SNB-78 > 100 µM | SR > 100 µM | SW-620 > 100 µM | TK-10 > 100 µM | U-251 > 100 µM | UACC-257 > 100 µM | UACC-62 > 100 µM | UO-31 > 100 µM | XF498 45.2 µM
